The record followed here is patent US5283243A, “Piperidinoalkylbenzoxazine and piperidinoalkylbenzothiazine compounds, and medicaments containing them” (Kali-Chemie Pharma GmbH, priority 1990, dated 1994).

What is called inhibition is the change of the read-out against control, counted positive when it falls.

Data set [1] has as its system 5-lipoxygenase (LTC4 release). Briefly: 5-Lipoxygenase inhibition: LTC4 release from zymosan-stimulated mouse peritoneal macrophage cells. The data set is classed as cell-based. Particulars: Peritoneal macrophage cell, read-out: In vitro % inhibition upon release of LTC4. From the text:
(§1) 5. In vitro Determination of Cyclooxygenase Inhibition and 5-Lipoxygenase Inhibition
(§2) After a cell is activated, arachidonic acid contained in cell membranes is metabolized in two ways. Leucotrienes, inter alia leucotriene C4, are formed due to the action of the enzyme 5-lipoxyqenase (=5-LO), and prostanoids are formed due to the action of the enzyme cyclooxygenase (=CO). In in vitro systems these metabolites are secreted from the cell.
(§3) To evaluate the cyclooxygenase-inhibiting and 5-lipoxygenase-inhibiting properties of the test substances, their inhibitory activity on the biosynthesis of the arachidonic acid derivatives leucotriene C4 (=LTC4) and 6-keto-prostaglandin F1α (=6-keto-PGF1 α) was determined in vitro on mouse peritoneal macrophage cells. For this purpose the LTC4 and 6-keto-PGF1 α contents of a mouse peritoneal macrophage cell culture medium were determined by zymosan stimulation as described by Scott et al. (J. Exp. Med. 152 (1980), 324-335) and by Fradin et al., (Prostaglandins, 33 (1987), 579-589).
(§4) A cell suspension containing peritoneal cells from male mice 8-10 weeks old was obtained in a known manner. A solution marketed under the designation RPMI 1640 (Manufactured by Gibco) was used as the cell culture medium, to which heparin (10 international units/ml) and antibiotics were added according to the procedure of Bonney et al. (Biochem. J. 176 (1978) 422-433). The cell suspension was adjusted to a cell concentration of 10^6 cells per ml and distributed uniformly on titer dishes containing 24 1-ml titer cells (wells). These were kept for two hours in a humidified incubator filled with air enriched with 7% CO2. Cells not adhering to the titer well walls were then removed by washing. The remaining macrophage cells adhering to the walls were incubated for about 12 hours in a suspension medium to which 0.1% of bovine serum albumin (BSA=Bovine Serum Albumin) was added. The suspension medium was then replaced by a Hanks salt solution (=Hanks Balanced Salt Solution=HBSS) with 10 mmoles of Hepes (=hydroxyethylpiperazinoethanesulfonic acid) to which a 0.1% strength solution of the test substances in aqueous, 1% strength dimethylformamide or only the solvent had been added. After 15 minutes the arachidonic acid metabolism was stimulated by adding […] of zymosan (=glycoprotein mixture isolated from cell walls of beer yeast, Saccharomyces cerevisiae, Manufactured by Sigma Chemical Co., Munich) per titre cell. After 2 hours samples of the respective supernatant liquid in each cell were examined for their 6-keto-PGF1α and LTC4 contents by an enzyme immunoassay (=EIA). This EIA is carried out following the method of Pradelles et al. (Analytical Chem. 57 (1985), 1170-1173). The determination of LTC4 and the determination of 6-keto-PGF1α were each carried out on suitable dilutions of the samples (1:50 to 1:250 for the LTC4 determination and 1:250 to 1:1,250 for the 6-keto-PGF1α determination) in comparison with a comparative scale. To determine the inhibiting effect of a 10^-5 molar concentration of the compounds, the amounts of reference eicosanoid were determined, and the inhibiting effect was calculated therefrom in % inhibition compared to the measurements of the zymosan controls.

Data set [2] concerns PAF-induced aggregation of rabbit blood platelets. Briefly: Anti-PAF activity in vitro, inhibition of PAF-induced platelet aggregation. The data set is classed as cell-based, rabbit (New Zealand hybrids). Conditions: test substance concentration of 10^-5 mole/l, pH 7.4. An excerpt:
4. Determination of Anti-PAF Activity In Vitro
PAF (=Platelet Activating Factor) is a phospholipid mediator which has many effects. Activation of platelet aggregation induces protracted broncho-contraction and hyper-reactivity of the air paths.
In this test the effect of the test substances on platelet aggregation induced by adding PAF to a suspension of platelets obtained from rabbit blood is investigated using the method described by Mikashima et al. (Jap. J. Pharmacol. 44 (1987) 387-391).
A suspension of platelets obtained from rabbit blood containing 4×10^9 platelets/ml in a modified Tyrode buffer solution (=Tyrode solution with 1.3 mM/1 CaCl2 and 2.5 g/l gelatine added) adjusted to pH 7.4 was used. Tyrode solution is an aqueous solution containing 136.9 mmoles NaCl, 2.68 mmoles KCl, 2.31 mmoles CaCl2, 1.0 mmole MgCl2, 11.9 mmoles NaHCO3, 1.45 mmoles NaH2 PO4 and 5.55 mmoles glucose per liter. The platelets were obtained from 10 ml blood samples from each of three rabbits (New Zealand hybrids, body weight 3-4 kg). For this the blood samples were treated with ethylenediamine tetraacetic acid and washed according to the method of Artley et al. (Brit. J. Hematol. 19 (1970), 7-17). […]
To carry out the test 50 μl of the platelet suspension and 10 μl of a 40×10^-5 molar solution of the compound being investigated were added with stirring (1,000 rpm) to 330 μl of the modified Tyrode buffer solution in an aggregation tube provided with a small magnetic stirrer. […] The aggregation occurring in the aggregation tubes was measured over 4-5 minutes with the aid of a computerized aggregometer.
The aggregation which occurred in test tubes containing only platelet suspension was evaluated as 0%, whereas the aggregation which occurred in test tubes containing platelet suspension and PAF preparation was evaluated as 100%. The aggregation which still occurred during the inhibition of the PAF induced platelet aggregation due to the addition of the test substances was measured, and the resulting aggregation inhibition was calculated therefrom in %.

For data set [3], the system named is cyclooxygenase (6-keto-PGF1α release). The data set is described as follows: Cyclooxygenase inhibition: 6-keto-PGF1α release from zymosan-stimulated mouse peritoneal macrophage cells. The data set is classed as cell-based. Conditions: Peritoneal macrophage cell, read-out: In vitro % inhibition upon release of 6-keto-PGF1α.
Excerpt: as §1, §2, §3, §4

The next data set deals with T1, histamine-(H1)-receptor (Cavia porcellus, UniProt P31389).
T1 construct: Segments of the ileum 1.5 cm long from Dunkin Hartley guinea pigs; from tissue; host or cells: isolated ileum segments of Dunkin Hartley guinea pigs
Briefly: Anti-histamine-(H1) effect, inhibition of histamine-induced contraction of isolated guinea pig ileum in vitro. The data set is classed as cell-based, Dunkin Hartley guinea pigs. Particulars: histamine 5 × 10^-6 mole/l, test substance 10^-6 mole/l. The method, then:
3. Investigation of Anti-Histamine-(H1) Effect Based on Histamine-(H1)-Receptor Antagonism In Vitro
To investigate the histamine-(H1)-receptor antagonism of the test substances, the inhibiting effect of the substances on histamine-induced contractions of the smooth muscle was determined in vitro on the isolated organ. Isolated strips of organ from the ileum are suitable for this purpose. In an organ bath of physiological saline solution the smooth muscle strips react to the addition of histamine by contracting. […] The extent of regression of the contraction is an indication of the anti-histamine-(H1) activity of the compounds. The investigation was carried out analogously to the method originally described by Magnus (Pfluegers Arch. 102, 123 (1904)). Procedure for determining the smooth muscle contraction inhibiting effect on isolated guinea pig ileum induced by a 5×10^-6 molar histamine concentration.
Segments of the ileum 1.5 cm long from Dunkin Hartley guinea pigs having a body weight of 300 500 g were used for the test. Each strip was placed in an organ bath of 10 ml of physiological saline solution according to Krebs-Henseleit and attached to a conventional apparatus for isotonic measurement of changes in length of the ileum strips (automated Celaster measuring apparatus), so that the tissue was under 1 g of tension. The bath was kept at a pH of 7.4 and gassed with a mixture of 5% CO2 and 95% 02. After an equilibration phase, an isotonic contraction of the tissue was induced by adding histamine in a final concentration of 5×10^-6 mole/liter and washing it out again after a contact time of 30 seconds. Only tissues samples from which three reproducible contractions were obtained at 10 minute intervals were used in the subsequent test. The test substances were then added in a final concentration of 10^-6 mole/liter, and after 30 seconds contact time histamine was again added up to a concentration of 5×10^-6 mole/liter. The resulting contractions were measured over 30 seconds. The tissue was then washed several times over a period of 10 minutes. Histamine was then added again to stimulate a contraction. The resulting contractions were again measured over 30 seconds. The difference between the amplitude of the contraction obtained by histamine addition alone and the amplitude of the contraction obtained in the presence of the test substance was determined and expressed in terms of % inhibition.
The inhibiting effects on the contractions induced by histamine 30 seconds after administration of the test substance and on the contractions induced by the addition of histamine 10 minutes later are listed in the table.

In the next data set the test system is mice. Briefly: Determination of minimum toxic dose. The data set is classed as in vivo. Conditions: mouse, per os; lowest dose producing death or severe toxic symptoms, maximum dose 300 mg/kg, 24 hours. The method, then: 2. Determination of Minimum Toxic Dose
Maximum doses of 300 mg/kg of the test substance were administered orally to male mice weighing 20-25 g. The animals were observed carefully for 3 hours for toxicity symptoms. In addition, all symptoms and deaths were recorded over a period of 24 hours after administration. Associated symptoms were also observed and recorded. If death or severe toxic symptoms were observed, additional mice were administered increasingly lower doses. The lowest dose which produced death or severe toxic symptoms is given in the following Table B as the minimum toxic dose.

The mark [4] stands for this setting: zymosan-stimulated mouse peritoneal macrophage cells, 10^-5 mole/l.

Read-outs that look alike come from different tables or passages of the source.

T1 sequence (P31389 whole entry): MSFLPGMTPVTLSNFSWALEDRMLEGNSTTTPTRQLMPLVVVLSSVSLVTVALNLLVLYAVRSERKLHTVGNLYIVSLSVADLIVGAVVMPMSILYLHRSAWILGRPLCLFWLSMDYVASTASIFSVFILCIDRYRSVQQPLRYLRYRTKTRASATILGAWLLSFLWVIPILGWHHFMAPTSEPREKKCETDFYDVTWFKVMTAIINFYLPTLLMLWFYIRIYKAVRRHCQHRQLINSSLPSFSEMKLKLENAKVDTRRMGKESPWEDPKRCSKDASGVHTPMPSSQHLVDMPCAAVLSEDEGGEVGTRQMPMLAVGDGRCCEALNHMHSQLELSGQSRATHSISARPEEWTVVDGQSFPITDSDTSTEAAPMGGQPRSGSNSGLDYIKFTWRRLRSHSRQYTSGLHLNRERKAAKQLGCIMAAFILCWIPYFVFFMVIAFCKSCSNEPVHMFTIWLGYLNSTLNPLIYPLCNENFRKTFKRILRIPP

On to `N#CC1(c2ccccc2)CCN(CCCC2Oc3ccc(Cl)cc3NC2=O)CC1` (stereo not drawn) [Example 14], for which the inhibition at 10 µM was 10% in data set [1] (Mus musculus) and 25% in data set [3] (Mus musculus). Further, the “% inhibition of the PAF-induced aggregation of rabbit blood platelets” value (shortened to “% inhibition … of rabbit blood platelets”) in data set [2] worked out at 57%.
In the case of `O=C1Nc2ccccc2OC1CCCCN1CCC(O)(c2ccccc2)CC1` (stereo not drawn) [Example 13], at histamine-(H1)-receptor (after 30 seconds), the “in vitro (H1)-receptor antagonism, % inhibition of histamine-induced ileum contractions after 30 seconds” value was 49%. Further, the “in vitro (H1)-receptor antagonism, % inhibition of histamine-induced ileum contractions after 10 minutes” value on histamine-(H1)-receptor (after 10 minutes) turned out to be 8%.
The compound `O=C1Nc2ccccc2SC1CCCN1CCC(Cc2ccccc2)CC1` (stereo not drawn) [Example 21] displayed a Minimum toxic dose in the data set on mice of 100 mg/kg. The inhibition at 10 µM in data set [1] (setting [4]) was 24%; in data set [3] (setting [4]), 11%. The “% inhibition … of rabbit blood platelets” value in data set [2] is on record as 33%.
In the case of `Cc1cc2c(cc1C)SC(CCCCN1CC=C(c3ccccc3)CC1)C(=O)N2` (stereo not drawn) [Example 19], the inhibition at 10 µM in data set [1] (setting [4]) amounted to 57%; in data set [3] (setting [4]) it was 16%. Further, the “% inhibition … of rabbit blood platelets” value in data set [2] is reported as 72%.
